Source: paper PMC12670405, “Second-Generation AURKA-Targeting PROTACs: Structural Optimization toward in Vivo Degradation in Neuroblastoma” (Journal of Medicinal Chemistry, 2025)

Key:
Test in all cases: KINOMEscan scanMAX
Assay type in all cases: binding
Settings in all cases: read-out: Percent Control
[1] = biological target: T1, ABL1(F317I)-nonphosphorylated (Homo sapiens, UniProt P00519, F317I)
T1 construct: purchased Eurofins Discovery (DiscoverX KINOMEscan scanMAX)
Method: (§1) The kinome-wide binding assay was performed by Eurofins Discovery using the scanMAX screening platform. More information can be found on the Eurofins Discovery Web site.

[2] = biological target: T2, AURKB (Homo sapiens, UniProt Q96GD4)
T2 construct: purchased Eurofins Discovery
Method: as §1

[3] = biological target: T3, CDK8 (Homo sapiens, UniProt P49336)
T3 construct: purchased Eurofins Discovery (DiscoverX KINOMEscan scanMAX)
Method: as §1

[4] = biological target: T4, CSNK1G3 (Homo sapiens, UniProt Q9Y6M4)
T4 construct: purchased Eurofins Discovery (DiscoverX KINOMEscan scanMAX)
Method: as §1

[5] = biological target: T5, DAPK2 (Homo sapiens, UniProt Q9UIK4)
T5 construct: purchased Eurofins Discovery (DiscoverX KINOMEscan scanMAX)
Method: as §1

[6] = biological target: T6, DCAMKL3 (Homo sapiens, UniProt Q9C098)
T6 construct: purchased Eurofins Discovery (DiscoverX KINOMEscan scanMAX)
Method: as §1

[7] = biological target: T7, EGFR(L747-E749del, A750P) (Homo sapiens, UniProt P00533, A750P/DEL747-749)
T7 construct: purchased Eurofins Discovery (DiscoverX KINOMEscan scanMAX)
Method: as §1

[8] = biological target: T8, ERBB4 (Homo sapiens, UniProt Q15303)
T8 construct: purchased Eurofins Discovery (DiscoverX KINOMEscan scanMAX)
Method: as §1

[9] = biological target: T9, GCN2(Kin.Dom.2,S808G) (Homo sapiens, UniProt Q9P2K8, S808G)
T9 construct: GCN2(Kin.Dom.2,S808G); purchased Eurofins Discovery (DiscoverX KINOMEscan scanMAX)
Method: as §1

[10] = biological target: T10, GRK3 (Homo sapiens, UniProt P35626)
T10 construct: purchased Eurofins Discovery (DiscoverX KINOMEscan scanMAX)
Method: as §1

[11] = biological target: T11, HIPK2 (Homo sapiens, UniProt Q9H2X6)
T11 construct: purchased Eurofins Discovery (DiscoverX KINOMEscan scanMAX)
Method: as §1

[12] = biological target: T12, JAK3(JH1domain-catalytic) (Homo sapiens, UniProt P52333)
T12 construct: JAK3(JH1domain-catalytic); purchased Eurofins Discovery (DiscoverX KINOMEscan scanMAX)
Method: as §1

[13] = biological target: T13, JNK2 (Homo sapiens, UniProt P45984)
T13 construct: purchased Eurofins Discovery (DiscoverX KINOMEscan scanMAX)
Method: as §1

[14] = biological target: T14, KIT(D816H) (Homo sapiens, UniProt P10721, D816H)
T14 construct: purchased Eurofins Discovery (DiscoverX KINOMEscan scanMAX)
Method: as §1

[15] = biological target: T15, MAP3K4 (Homo sapiens, UniProt Q9Y6R4)
T15 construct: purchased Eurofins Discovery (DiscoverX KINOMEscan scanMAX)
Method: as §1

[16] = biological target: T16, MAPKAPK5 (Homo sapiens, UniProt Q8IW41)
T16 construct: purchased Eurofins Discovery (DiscoverX KINOMEscan scanMAX)
Method: as §1

[17] = biological target: T17, MKK7 (Homo sapiens, UniProt O14733)
T17 construct: purchased Eurofins Discovery (DiscoverX KINOMEscan scanMAX)
Method: as §1

[18] = biological target: T18, NEK9 (Homo sapiens, UniProt Q8TD19)
T18 construct: purchased Eurofins Discovery (DiscoverX KINOMEscan scanMAX)
Method: as §1

[19] = biological target: T19, PIP5K2C (Homo sapiens, UniProt Q8TBX8)
T19 construct: purchased Eurofins Discovery (DiscoverX KINOMEscan scanMAX)
Method: as §1

[20] = biological target: T20, PKN1 (Homo sapiens, UniProt Q16512)
T20 construct: purchased Eurofins Discovery (DiscoverX KINOMEscan scanMAX)
Method: as §1

[21] = biological target: T21, PRKD1 (Homo sapiens, UniProt Q15139)
T21 construct: purchased Eurofins Discovery (DiscoverX KINOMEscan scanMAX)
Method: as §1

[22] = biological target: T22, RIPK1 (Homo sapiens, UniProt Q13546)
T22 construct: purchased Eurofins Discovery (DiscoverX KINOMEscan scanMAX)
Method: as §1

[23] = biological target: T23, RPS6KA5(Kin.Dom.2-C-terminal) (Homo sapiens, UniProt O75582)
T23 construct: RPS6KA5(Kin.Dom.2-C-terminal); purchased Eurofins Discovery (DiscoverX KINOMEscan scanMAX)
Method: as §1

[24] = biological target: T24, RSK1(Kin.Dom.2-C-terminal) (Homo sapiens, UniProt Q15418)
T24 construct: RSK1(Kin.Dom.2-C-terminal); purchased Eurofins Discovery (DiscoverX KINOMEscan scanMAX)
Method: as §1

[25] = biological target: T25, SBK1 (Homo sapiens, UniProt Q52WX2)
T25 construct: purchased Eurofins Discovery (DiscoverX KINOMEscan scanMAX)
Method: as §1

[26] = biological target: T26, SNARK (Homo sapiens, UniProt Q9H093)
T26 construct: purchased Eurofins Discovery (DiscoverX KINOMEscan scanMAX)
Method: as §1

[27] = biological target: T27, STK39 (Homo sapiens, UniProt Q9UEW8)
T27 construct: purchased Eurofins Discovery (DiscoverX KINOMEscan scanMAX)
Method: as §1

[28] = biological target: T28, SYK (Homo sapiens, UniProt P43405)
T28 construct: purchased Eurofins Discovery (DiscoverX KINOMEscan scanMAX)
Method: as §1

[29] = biological target: T29, TTK (Homo sapiens, UniProt P33981)
T29 construct: purchased Eurofins Discovery (DiscoverX KINOMEscan scanMAX)
Method: as §1

[30] = biological target: T30, WNK2 (Homo sapiens, UniProt Q9Y3S1)
T30 construct: purchased Eurofins Discovery (DiscoverX KINOMEscan scanMAX)
Method: as §1

[31] = biological target: T31, YANK3 (Homo sapiens, UniProt Q86UX6)
T31 construct: purchased Eurofins Discovery (DiscoverX KINOMEscan scanMAX)
Method: as §1

T6 sequence (Q9C098 whole entry): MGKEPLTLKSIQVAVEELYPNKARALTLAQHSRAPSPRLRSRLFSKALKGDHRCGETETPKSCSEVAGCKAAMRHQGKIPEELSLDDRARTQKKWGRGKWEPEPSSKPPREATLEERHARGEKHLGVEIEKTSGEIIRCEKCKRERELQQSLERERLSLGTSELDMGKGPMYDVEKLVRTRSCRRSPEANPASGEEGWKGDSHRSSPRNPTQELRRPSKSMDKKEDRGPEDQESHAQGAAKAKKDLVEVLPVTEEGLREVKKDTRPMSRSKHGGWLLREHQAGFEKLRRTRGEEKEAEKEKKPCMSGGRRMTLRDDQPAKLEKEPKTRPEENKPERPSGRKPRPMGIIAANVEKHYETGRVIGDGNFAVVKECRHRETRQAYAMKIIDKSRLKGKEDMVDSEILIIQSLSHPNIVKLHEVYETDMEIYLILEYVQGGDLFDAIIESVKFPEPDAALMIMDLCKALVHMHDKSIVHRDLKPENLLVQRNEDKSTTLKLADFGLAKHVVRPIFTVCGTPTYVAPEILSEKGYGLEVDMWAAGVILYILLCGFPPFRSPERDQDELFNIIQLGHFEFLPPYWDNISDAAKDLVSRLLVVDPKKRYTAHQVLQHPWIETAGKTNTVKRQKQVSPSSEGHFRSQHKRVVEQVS
T14 sequence (P10721 26-976 D816H): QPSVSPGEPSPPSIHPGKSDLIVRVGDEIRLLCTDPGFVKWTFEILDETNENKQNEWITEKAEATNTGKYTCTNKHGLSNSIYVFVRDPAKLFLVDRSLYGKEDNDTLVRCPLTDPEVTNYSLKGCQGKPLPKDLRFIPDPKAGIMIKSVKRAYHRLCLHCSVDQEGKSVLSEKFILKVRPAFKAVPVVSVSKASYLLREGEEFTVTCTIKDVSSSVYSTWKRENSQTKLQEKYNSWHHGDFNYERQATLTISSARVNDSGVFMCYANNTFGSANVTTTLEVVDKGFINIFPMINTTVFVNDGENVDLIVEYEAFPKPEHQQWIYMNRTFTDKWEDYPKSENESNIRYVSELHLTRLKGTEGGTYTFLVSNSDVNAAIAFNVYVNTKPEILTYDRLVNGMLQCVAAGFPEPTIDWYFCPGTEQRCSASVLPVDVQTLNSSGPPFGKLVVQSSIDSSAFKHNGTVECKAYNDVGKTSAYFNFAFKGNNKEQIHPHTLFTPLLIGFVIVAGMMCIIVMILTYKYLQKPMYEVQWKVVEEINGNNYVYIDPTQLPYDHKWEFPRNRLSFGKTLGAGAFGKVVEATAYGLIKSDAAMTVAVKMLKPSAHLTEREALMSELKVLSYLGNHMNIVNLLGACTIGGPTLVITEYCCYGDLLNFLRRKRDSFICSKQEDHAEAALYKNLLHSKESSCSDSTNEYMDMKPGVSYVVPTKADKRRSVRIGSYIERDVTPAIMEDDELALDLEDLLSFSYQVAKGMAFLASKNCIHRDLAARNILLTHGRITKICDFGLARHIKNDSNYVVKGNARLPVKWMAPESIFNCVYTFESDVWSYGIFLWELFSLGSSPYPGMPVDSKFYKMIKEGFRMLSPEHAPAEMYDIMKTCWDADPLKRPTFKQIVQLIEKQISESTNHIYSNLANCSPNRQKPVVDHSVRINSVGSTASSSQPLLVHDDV
T20 sequence (Q16512 whole entry): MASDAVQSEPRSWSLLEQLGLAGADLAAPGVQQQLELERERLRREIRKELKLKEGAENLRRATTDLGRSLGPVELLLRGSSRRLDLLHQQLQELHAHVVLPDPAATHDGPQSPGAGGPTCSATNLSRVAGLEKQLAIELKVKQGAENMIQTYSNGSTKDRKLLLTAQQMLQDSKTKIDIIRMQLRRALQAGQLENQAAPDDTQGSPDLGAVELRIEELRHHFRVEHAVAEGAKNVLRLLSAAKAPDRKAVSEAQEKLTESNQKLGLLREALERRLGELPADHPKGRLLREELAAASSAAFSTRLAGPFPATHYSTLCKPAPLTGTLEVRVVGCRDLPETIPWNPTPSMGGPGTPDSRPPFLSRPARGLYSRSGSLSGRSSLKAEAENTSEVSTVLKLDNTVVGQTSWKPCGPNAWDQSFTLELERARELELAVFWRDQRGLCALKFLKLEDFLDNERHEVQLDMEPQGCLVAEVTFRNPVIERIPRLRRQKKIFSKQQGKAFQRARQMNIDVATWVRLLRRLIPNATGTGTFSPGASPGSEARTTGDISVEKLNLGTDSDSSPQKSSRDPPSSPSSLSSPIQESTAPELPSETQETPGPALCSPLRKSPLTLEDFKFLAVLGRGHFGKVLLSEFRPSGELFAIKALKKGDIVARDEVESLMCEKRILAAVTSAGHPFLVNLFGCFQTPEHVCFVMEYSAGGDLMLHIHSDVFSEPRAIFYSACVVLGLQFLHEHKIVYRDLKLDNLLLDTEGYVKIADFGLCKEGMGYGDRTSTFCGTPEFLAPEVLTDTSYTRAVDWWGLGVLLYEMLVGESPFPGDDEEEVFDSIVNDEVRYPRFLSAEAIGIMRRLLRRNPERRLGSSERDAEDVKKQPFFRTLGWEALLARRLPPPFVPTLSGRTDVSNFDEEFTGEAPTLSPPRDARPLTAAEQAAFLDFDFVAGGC
T7 sequence (P00533 with tags, fused parts or gaps DEL747-749/A750P limits assumed): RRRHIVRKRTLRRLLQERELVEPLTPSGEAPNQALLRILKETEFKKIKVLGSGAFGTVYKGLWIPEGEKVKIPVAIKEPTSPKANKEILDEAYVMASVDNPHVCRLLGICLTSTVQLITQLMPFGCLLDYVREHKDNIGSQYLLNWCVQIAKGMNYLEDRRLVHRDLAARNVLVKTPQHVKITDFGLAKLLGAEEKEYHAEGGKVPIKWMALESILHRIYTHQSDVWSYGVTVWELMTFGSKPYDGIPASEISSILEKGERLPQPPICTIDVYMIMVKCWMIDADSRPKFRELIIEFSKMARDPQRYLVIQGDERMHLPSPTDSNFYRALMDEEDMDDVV
T25 sequence (Q52WX2 whole entry): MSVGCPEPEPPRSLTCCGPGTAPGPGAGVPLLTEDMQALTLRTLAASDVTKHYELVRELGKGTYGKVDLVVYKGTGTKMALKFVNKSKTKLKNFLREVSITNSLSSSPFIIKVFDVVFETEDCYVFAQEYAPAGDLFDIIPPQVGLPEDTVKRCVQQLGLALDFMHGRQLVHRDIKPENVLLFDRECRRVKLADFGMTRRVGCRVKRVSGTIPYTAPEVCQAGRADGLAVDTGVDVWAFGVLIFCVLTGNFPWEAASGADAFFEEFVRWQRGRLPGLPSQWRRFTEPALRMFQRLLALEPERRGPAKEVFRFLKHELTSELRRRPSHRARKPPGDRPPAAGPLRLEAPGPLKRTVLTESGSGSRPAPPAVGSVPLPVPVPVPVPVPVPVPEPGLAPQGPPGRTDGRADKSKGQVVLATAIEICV
T8 sequence (Q15303 26-1308): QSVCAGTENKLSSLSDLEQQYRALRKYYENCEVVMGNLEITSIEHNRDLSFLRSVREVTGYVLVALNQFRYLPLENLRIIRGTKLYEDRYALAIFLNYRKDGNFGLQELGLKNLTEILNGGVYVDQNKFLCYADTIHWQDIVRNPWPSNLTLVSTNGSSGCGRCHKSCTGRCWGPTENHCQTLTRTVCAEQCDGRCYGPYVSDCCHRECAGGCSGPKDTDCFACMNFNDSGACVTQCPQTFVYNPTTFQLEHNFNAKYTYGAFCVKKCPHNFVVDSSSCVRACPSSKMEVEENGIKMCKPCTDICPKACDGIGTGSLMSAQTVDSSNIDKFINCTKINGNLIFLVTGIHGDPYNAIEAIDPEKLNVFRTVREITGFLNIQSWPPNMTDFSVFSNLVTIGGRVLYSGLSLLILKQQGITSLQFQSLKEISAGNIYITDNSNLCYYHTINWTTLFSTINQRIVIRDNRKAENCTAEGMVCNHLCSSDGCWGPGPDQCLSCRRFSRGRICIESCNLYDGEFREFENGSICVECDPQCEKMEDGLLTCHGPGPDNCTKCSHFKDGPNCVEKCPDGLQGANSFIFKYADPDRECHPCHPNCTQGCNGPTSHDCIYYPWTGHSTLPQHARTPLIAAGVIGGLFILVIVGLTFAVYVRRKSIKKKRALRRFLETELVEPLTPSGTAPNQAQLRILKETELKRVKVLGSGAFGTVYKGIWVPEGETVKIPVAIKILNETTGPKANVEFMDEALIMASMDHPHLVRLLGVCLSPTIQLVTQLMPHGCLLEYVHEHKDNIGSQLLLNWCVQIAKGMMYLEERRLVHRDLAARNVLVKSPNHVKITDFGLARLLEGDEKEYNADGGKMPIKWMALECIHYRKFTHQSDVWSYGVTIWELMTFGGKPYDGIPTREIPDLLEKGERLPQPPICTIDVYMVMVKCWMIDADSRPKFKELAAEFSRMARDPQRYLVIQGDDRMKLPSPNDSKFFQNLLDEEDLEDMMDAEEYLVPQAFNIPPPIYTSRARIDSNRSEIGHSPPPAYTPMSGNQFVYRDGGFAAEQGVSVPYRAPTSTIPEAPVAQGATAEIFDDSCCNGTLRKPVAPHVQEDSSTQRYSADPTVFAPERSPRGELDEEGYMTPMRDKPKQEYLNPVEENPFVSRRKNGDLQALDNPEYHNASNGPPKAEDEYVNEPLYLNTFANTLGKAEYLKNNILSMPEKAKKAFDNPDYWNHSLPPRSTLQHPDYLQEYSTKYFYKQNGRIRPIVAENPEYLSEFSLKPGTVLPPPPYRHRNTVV
T5 sequence (Q9UIK4 whole entry): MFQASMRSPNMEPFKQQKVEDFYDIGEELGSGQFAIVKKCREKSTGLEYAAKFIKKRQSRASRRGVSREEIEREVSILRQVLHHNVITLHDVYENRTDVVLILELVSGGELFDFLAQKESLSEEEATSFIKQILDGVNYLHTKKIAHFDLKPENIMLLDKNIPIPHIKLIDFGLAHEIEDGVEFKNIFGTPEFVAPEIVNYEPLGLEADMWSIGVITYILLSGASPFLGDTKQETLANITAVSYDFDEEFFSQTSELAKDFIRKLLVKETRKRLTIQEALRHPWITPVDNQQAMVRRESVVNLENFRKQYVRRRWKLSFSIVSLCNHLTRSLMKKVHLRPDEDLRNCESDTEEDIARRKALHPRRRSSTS

Cc1cc(Nc2ccc(F)c(CC3(C(=O)N4CCC(F)(CN5CCN(c6ccc(N7CCC(=O)NC7=O)cn6)CC5)CC4)CCN(Cc4cccc(Cl)c4F)CC3)n2)n[nH]1 [SK5527] showed a remaining binding at 0.1 µM ([1]; 100 nM) of 84%, a remaining binding at 1 µM ([1]; 1000 nM) of 74% and a remaining binding at 0.1 µM ([2]; 100 nM) of 100%. It also gave a remaining binding at 1 µM ([2]; 1000 nM) of 53%, a remaining binding at 0.1 µM ([3]; 100 nM) of 88% and a remaining binding at 1 µM ([3]; 1000 nM) of 89%. It also gave a remaining binding at 0.1 µM ([4]; 100 nM) of 100%, a remaining binding at 1 µM ([4]; 1000 nM) of 92% and a remaining binding at 0.1 µM ([5]; 100 nM) of 100%. For the same molecule, the remaining binding at 1 µM ([5]; 1000 nM) was 93%, the remaining binding at 0.1 µM ([6]; 100 nM) was 100% and the remaining binding at 1 µM ([6]; 1000 nM) was 100%. It also gave a remaining binding at 0.1 µM ([7]; 100 nM) of 100%, a remaining binding at 1 µM ([7]; 1000 nM) of 97% and a remaining binding at 0.1 µM ([8]; 100 nM) of 100%. It also gave a remaining binding at 1 µM ([8]; 1000 nM) of 100%, a remaining binding at 0.1 µM ([9]; 100 nM) of 98% and a remaining binding at 1 µM ([9]; 1000 nM) of 100%. For the same molecule, the remaining binding at 0.1 µM ([10]; 100 nM) was 100%, the remaining binding at 1 µM ([10]; 1000 nM) was 100% and the remaining binding at 0.1 µM ([11]; 100 nM) was 100%. The remaining binding at 1 µM ([11]; 1000 nM) was 91%, the remaining binding at 0.1 µM ([12]; 100 nM) was 100% and the remaining binding at 1 µM ([12]; 1000 nM) was 80%. It also gave a remaining binding at 0.1 µM ([13]; 100 nM) of 67%, a remaining binding at 1 µM ([13]; 1000 nM) of 74% and a remaining binding at 0.1 µM ([14]; 100 nM) of 100%. It also gave a remaining binding at 1 µM ([14]; 1000 nM) of 100%, a remaining binding at 0.1 µM ([15]; 100 nM) of 72% and a remaining binding at 1 µM ([15]; 1000 nM) of 87%. For the same molecule, the remaining binding at 0.1 µM ([16]; 100 nM) was 85%, the remaining binding at 1 µM ([16]; 1000 nM) was 74% and the remaining binding at 0.1 µM ([17]; 100 nM) was 100%. It also gave a remaining binding at 1 µM ([17]; 1000 nM) of 54%, a remaining binding at 0.1 µM ([18]; 100 nM) of 78% and a remaining binding at 1 µM ([18]; 1000 nM) of 81%. It also gave a remaining binding at 0.1 µM ([19]; 100 nM) of 100%, a remaining binding at 1 µM ([19]; 1000 nM) of 100% and a remaining binding at 0.1 µM ([20]; 100 nM) of 100%. The remaining binding at 1 µM ([20]; 1000 nM) was 89%, the remaining binding at 0.1 µM ([21]; 100 nM) was 100% and the remaining binding at 1 µM ([21]; 1000 nM) was 100%. For the same molecule, the remaining binding at 0.1 µM ([22]; 100 nM) was 100%, the remaining binding at 1 µM ([22]; 1000 nM) was 86% and the remaining binding at 0.1 µM ([23]; 100 nM) was 100%. For the same molecule, the remaining binding at 1 µM ([23]; 1000 nM) was 96%, the remaining binding at 0.1 µM ([24]; 100 nM) was 85% and the remaining binding at 1 µM ([24]; 1000 nM) was 92%. For the same molecule, the remaining binding at 0.1 µM ([25]; 100 nM) was 86%, the remaining binding at 1 µM ([25]; 1000 nM) was 64% and the remaining binding at 0.1 µM ([26]; 100 nM) was 86%. For the same molecule, the remaining binding at 1 µM ([26]; 1000 nM) was 76%, the remaining binding at 0.1 µM ([27]; 100 nM) was 100% and the remaining binding at 1 µM ([27]; 1000 nM) was 85%. It also gave a remaining binding at 0.1 µM ([28]; 100 nM) of 83%, a remaining binding at 1 µM ([28]; 1000 nM) of 100% and a remaining binding at 0.1 µM ([29]; 100 nM) of 100%. It also gave a remaining binding at 1 µM ([29]; 1000 nM) of 100%, a remaining binding at 0.1 µM ([30]; 100 nM) of 100% and a remaining binding at 1 µM ([30]; 1000 nM) of 100%. The remaining binding at 0.1 µM ([31]; 100 nM) was 86% and the remaining binding at 1 µM ([31]; 1000 nM) was 80%.
